Holding throughout (format): cell-based
Test [1] concerns Bacillus subtilis (ATCC 62037). To be noted: ATCC 62037, 3 h; for MIC: pH 7.4. As for the experimental part: (§1) The antimicrobial activity of each peptide was determined against eight representative microorganisms, including Gram-positive and Gram-negative bacteria and fungi, using the broth micro dilution assay as described by Park et al. with a slight modification. Briefly, mid-logarithmic phase cells were diluted to 1×10^5 cfu/ml in 10 mM sodium phosphate buffer (NAPB), pH 7.4. Each well of 96-well propylene micro titer plates (Costar, Cambridge, MA, USA) was filled with 90 µl of the diluted cell suspension and 10 µl of serially diluted peptide samples. After incubation for 3 h, fresh medium (trypticase soy broth for bacteria and Saboraud' medium for fungi) was added to the mixture and incubated at 37°C (bacteria) or 30°C (fungi) for an additional 12 h. Inhibition of growth was determined by measuring the absorbance at 620 nm with a Model 550 Microplate Reader (Bio-Rad, Hercules, CA, USA). […] The MIC values were calculated as an average of two independent experiments performed in triplicate.
(§2) ^a To determine the effect of protease digestion on the antimicrobial activity of Buf IIIb-L, synthetic Buf IIIb-L was first incubated with pepsin, trypsin, or chymotrypsin. After incubation at 37 °C for 30 min, the antimicrobial activity of the digested peptide was determined against eight representative microorganisms, including Gram-positive and Gram-negative bacteria and fungi, as described in Materials and Methods.

For test [2], the system named is Candida albicans (ATCC 10231). As to conditions: ATCC 10231, 3 h; for MIC: pH 7.4. As for the experimental part:
as §1, §2

Test [3] deals with Escherichia coli (ATCC 27325). As to conditions: ATCC 27325, 3 h; for MIC: pH 7.4. As for the experimental part: as §1, §2
The subject of test [4] is Pseudomonas putida (ATCC 17426). To be noted: ATCC 17426, 3 h; for MIC: pH 7.4. How it is done:
as §1, §2

Test [5] relates to Saccharomyces cerevisiae (ATCC 44774). To be noted: ATCC 44774, 3 h; for MIC: pH 7.4. As for the experimental part: as §1, §2
The subject of test [6] is Salmonella enteritidis (ATCC 13076). To be noted: ATCC 13076, 3 h; for MIC: pH 7.4. As for the experimental part: as §1, §2
The test system of test [7] is Staphylococcus aureus (ATCC 15752). To be noted: ATCC 15752, 3 h; for MIC: pH 7.4. As for the experimental part:
as §1, §2

Test [8] concerns Streptococcus mutans (ATCC 25175). As to conditions: ATCC 25175, 3 h; for MIC: pH 7.4. As for the experimental part:
as §1, §2

Test [9] deals with Listeria monocytogenes (ATCC 15313). To be noted: ATCC 15313, 3 h. As for the experimental part:
as §1, with “After incubation for 3 h, fresh medium (trypticase soy broth for bacteria and Saboraud' medium for fungi) was added to the mixture and incubated at 37°C (bacteria) or 30°C (fungi) for an additional 12 h.” left out
Antimicrobial activities of the pepsin-digested peptide mixtures obtained from E. coli cells with surface-expressed LO-Bn fusion proteins were tested against two oral infectious pathogens, Salmonella enteritidis (ATCC 13076) and Listeria monocytogenes (ATCC 15313) as described above except using 10 µl of the 20-fold diluted peptide mixtures obtained from 1×10^11 E. coli cells with surface-expressed LO-Bn fusion proteins instead of synthetic peptide. Growth of cells was determined by measuring absorbance at 620 nm with a Model 550 Microplate Reader (Bio-Rad). […]

The test system of test [10] is eight representative microorganisms, including Gram-positive and Gram-negative bacteria and fungi. As to conditions: 3 h. As for the experimental part:
as §1

In brackets after ≈: the same amount, converted by molar mass. Peptide text beside a SMILES is read from it. Some results are limits rather than exact numbers.

The results in this text go back to publication PMC3597565, “Display of Multimeric Antimicrobial Peptides on the Escherichia coli Cell Surface and Its Application as Whole-Cell Antibiotics” (PLoS ONE, 2013).

The term MIC denotes the least concentration at which growth counts as inhibited. A high value points to a need for much substance. Take `CC[C@H](C)[C@H](NC(=O)[C@@H]1CCCN1C(=O)[C@H](Cc1c[nH]c2ccccc12)NC(=O)[C@H](CCC(N)=O)NC(=O)[C@H](CCCNC(=N)N)NC(=O)[C@@H](NC(=O)[C@@H](NC(=O)[C@@H](N)CCCNC(=N)N)C(C)C)C(C)C)C(=O)NCC(=O)N[C@@H](CCCNC(=N)N)C(=O)N[C@H](C(=O)N[C@H](C(=O)N[C@@H](CCCNC(=N)N)C(=O)N[C@@H](CCCNC(=N)N)C(=O)N[C@H](C(=O)N[C@H](C(=O)N[C@@H](CCCNC(=N)N)C(=O)N[C@@H](CCCNC(=N)N)C(=O)N[C@H](C(=O)N[C@H](C(=O)N[C@@H](CCCNC(=N)N)C(=O)N[C@@H](CC(C)C)C(=O)O)C(C)C)C(C)C)C(C)C)C(C)C)C(C)C)C(C)C` [Buf IIIb-L] (H-RVVRQWPIGRVVRRVVRRVVRL-OH): the “MIC of Buf IIIb-L digested with Chymotrypsin” value in test [1], in [2], in test [3], in [4], in test [5] and in test [6] was above 256 µg/mL each time. In addition, the “MIC of Buf IIIb-L digested with Chymotrypsin” value in [7] and in test [8] was above 256 µg/mL throughout. The “MIC of Buf IIIb-L digested with Pepsin” value in test [1] was 2 µg/mL; in test [2], 2 µg/mL; in test [3], 2 µg/mL; in test [4], 4 µg/mL; in test [5], 2 µg/mL; in [6] it was 4 µg/mL. Also, the “MIC of Buf IIIb-L digested with Pepsin” value in [7] and in [8] was 2 µg/mL each time. The “MIC of Buf IIIb-L digested with Trypsin” value in [1], in [2], in [3], in test [4], in test [5] and in [6] was above 256 µg/mL throughout. In addition, the “MIC of Buf IIIb-L digested with Trypsin” value in [7] and in test [8] was above 256 µg/mL throughout. For the same compound, the MIC turned out to be 2 µg/mL (≈ 0.726 µM) in [1]; 2 µg/mL (≈ 0.726 µM) in test [2]; 2 µg/mL (≈ 0.726 µM) in test [3]; 4 µg/mL (≈ 1.45 µM) in [4]; 2 µg/mL (≈ 0.726 µM) in test [5]; 4 µg/mL (≈ 1.45 µM) in [6]. The MIC in [7], in [8] and in test [9] was 2 µg/mL (≈ 0.726 µM) in each case.
For `CC[C@H](C)[C@H](NC(=O)[C@@H]1CCCN1C(=O)[C@H](Cc1c[nH]c2ccccc12)NC(=O)[C@H](CCC(N)=O)NC(=O)[C@H](CCCNC(=N)N)NC(=O)[C@@H](NC(=O)[C@@H](NC(=O)[C@@H](N)CCCNC(=N)N)C(C)C)C(C)C)C(=O)NCC(=O)N[C@@H](CCCNC(=N)N)C(=O)N[C@H](C(=O)N[C@H](C(=O)N[C@@H](CCCNC(=N)N)C(=O)N[C@@H](CCCNC(=N)N)C(=O)N[C@H](C(=O)N[C@H](C(=O)N[C@@H](CCCNC(=N)N)C(=O)N[C@@H](CCCNC(=N)N)C(=O)N[C@H](C(=O)N[C@H](C(=O)N[C@@H](CCCNC(=N)N)C(=O)O)C(C)C)C(C)C)C(C)C)C(C)C)C(C)C)C(C)C` [Buf IIIb] (H-RVVRQWPIGRVVRRVVRRVVR-OH), the MIC in test [1] worked out at 2 µg/mL (≈ 0.757 µM); in test [2], 1 µg/mL (≈ 0.378 µM); in test [3] it was 1 µg/mL (≈ 0.378 µM); in test [4], 1 µg/mL (≈ 0.378 µM); in test [5] it was 0.5 µg/mL (≈ 0.189 µM); in test [6] it was 2 µg/mL (≈ 0.757 µM). For the same compound, the minimum inhibitory concentration (MIC) in test [7] and in test [8] was 2 µg/mL (≈ 0.757 µM) in each case. Also, in test [10], the “MIC, range over the microorganisms of Table 2” value was in the range of 0.5 to 2 µg/mL.
Take `CC[C@H](C)[C@H](NC(=O)[C@@H]1CCCN1C(=O)[C@H](Cc1c[nH]c2ccccc12)NC(=O)[C@H](CCC(N)=O)NC(=O)[C@H](CCCNC(=N)N)NC(=O)[C@@H](NC(=O)[C@@H](NC(=O)[C@@H](N)CCCNC(=N)N)C(C)C)C(C)C)C(=O)NCC(=O)N[C@@H](CCCNC(=N)N)C(=O)N[C@H](C(=O)N[C@H](C(=O)N[C@@H](CCCNC(=N)N)C(=O)N[C@@H](CCCNC(=N)N)C(=O)N[C@H](C(=O)N[C@H](C(=O)N[C@@H](CCCNC(=N)N)C(=O)N[C@@H](CCCNC(=N)N)C(=O)N[C@H](C(=O)N[C@H](C(=O)N[C@@H](CCCNC(=N)N)C(=O)N[C@@H](Cc1ccccc1)C(=O)O)C(C)C)C(C)C)C(C)C)C(C)C)C(C)C)C(C)C` [Buf IIIb-F] (H-RVVRQWPIGRVVRRVVRRVVRF-OH): the minimum inhibitory concentration (MIC) came to 2 µg/mL (≈ 0.717 µM) in test [1]; 0.5 µg/mL (≈ 0.179 µM) in test [2]; 4 µg/mL (≈ 1.43 µM) in test [3]; 4 µg/mL (≈ 1.43 µM) in test [4]; 0.5 µg/mL (≈ 0.179 µM) in [5]; 2 µg/mL (≈ 0.717 µM) in [6]. Also, the MIC in test [7] and in [8] was 2 µg/mL (≈ 0.717 µM) each time.
Take `CC(C)C[C@H](NC(=O)CNC(=O)[C@H](C)NC(=O)[C@@H](N)CCCNC(=N)N)C(=O)N[C@@H](CCC(N)=O)C(=O)N[C@@H](Cc1ccccc1)C(=O)N1CCC[C@H]1C(=O)N[C@H](C(=O)NCC(=O)N[C@@H](CCCNC(=N)N)C(=O)N[C@@H](CC(C)C)C(=O)N[C@@H](CC(C)C)C(=O)N[C@@H](CCCNC(=N)N)C(=O)N[C@@H](CCCNC(=N)N)C(=O)N[C@@H](CC(C)C)C(=O)N[C@@H](CC(C)C)C(=O)N[C@@H](CCCNC(=N)N)C(=O)N[C@@H](CCCNC(=N)N)C(=O)N[C@@H](CC(C)C)C(=O)N[C@@H](CC(C)C)C(=O)N[C@@H](CCCNC(=N)N)C(=O)O)C(C)C` [Buforin llb, reference compound] (H-RAGLQFPVGRLLRRLLRRLLR-OH; N-terminus and C-terminus assumed): the MIC amounted to 1 µg/mL (≈ 0.391 µM) in [1]; 2 µg/mL (≈ 0.781 µM) in test [2]; 1 µg/mL (≈ 0.391 µM) in [3]; 2 µg/mL (≈ 0.781 µM) in [4]; 2 µg/mL (≈ 0.781 µM) in [5]; 2 µg/mL (≈ 0.781 µM) in test [6]. Besides, the minimal inhibitory concentration (MIC) in test [7] and in [8] was 2 µg/mL (≈ 0.781 µM) each time.
Take `CC[C@H](C)[C@H](NC(=O)[C@@H]1CCCN1C(=O)[C@H](Cc1c[nH]c2ccccc12)NC(=O)[C@H](CCC(N)=O)NC(=O)[C@H](CCCNC(=N)N)NC(=O)[C@@H](NC(=O)[C@@H](NC(=O)[C@@H](N)CCCNC(=N)N)C(C)C)C(C)C)C(=O)NCC(=O)N[C@@H](CCCNC(=N)N)C(=O)N[C@H](C(=O)N[C@H](C(=O)N[C@@H](CCCNC(=N)N)C(=O)N[C@@H](CCCNC(=N)N)C(=O)N[C@H](C(=O)N[C@H](C(=O)N[C@@H](CCCNC(=N)N)C(=O)N[C@@H](CCCNC(=N)N)C(=O)N[C@H](C(=O)N[C@H](C(=O)N[C@@H](CCCNC(=N)N)C(=O)N[C@@H](Cc1ccc(O)cc1)C(=O)O)C(C)C)C(C)C)C(C)C)C(C)C)C(C)C)C(C)C` [Buf IIIb-Y] (H-RVVRQWPIGRVVRRVVRRVVRY-OH): the MIC stood at 2 µg/mL (≈ 0.713 µM) in test [1]; 4 µg/mL (≈ 1.43 µM) in [2]; 4 µg/mL (≈ 1.43 µM) in test [3]; 2 µg/mL (≈ 0.713 µM) in [4]; 1 µg/mL (≈ 0.356 µM) in test [5]; 2 µg/mL (≈ 0.713 µM) in test [6]. Further, the MIC in test [7] and in test [8] was 2 µg/mL (≈ 0.713 µM) throughout.
